# Experimental data taken from ChEMBL document CHEMBL1909046, “DrugMatrix in vitro pharmacology data”.
# Columns and labels:
# [1] = DRUGMATRIX: Glutamate, Kainate radioligand binding (ligand: [3H] Kainic acid); assay type: cell membranes, Rattus norvegicus, Wistar, Brain, Membrane; conditions: Not Active = under 50% inhibition at 10 µM
# [2] = molecular target: Matrix metalloproteinase-9 (Homo sapiens, UniProt P14780); assay type: cell-based;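 further: inhibition of isolated MMP-9 enzyme activity toward a synthetic peptide substrate, from the DrugMatrix protease screening panel; in other assays of this panel Not Active means under 50% inhibition at 10 µM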
# Substance-P receptor = Substance-P receptor (Homo sapiens, UniProt P25103); assay type: cell membranes, CHO, Membrane; conditions: cho; further: in other assays of this panel Not Active means under 50% inhibition at 10 µM
# Cytochrome P450 2A6 = molecular target: T1, Cytochrome P450 2A6 (Homo sapiens, UniProt P11509); conditions: bti-tn-5b1-4; further: in other assays of this panel Not Active means under 50% inhibition at 10 µM
# T1 sequence (P11509 whole entry): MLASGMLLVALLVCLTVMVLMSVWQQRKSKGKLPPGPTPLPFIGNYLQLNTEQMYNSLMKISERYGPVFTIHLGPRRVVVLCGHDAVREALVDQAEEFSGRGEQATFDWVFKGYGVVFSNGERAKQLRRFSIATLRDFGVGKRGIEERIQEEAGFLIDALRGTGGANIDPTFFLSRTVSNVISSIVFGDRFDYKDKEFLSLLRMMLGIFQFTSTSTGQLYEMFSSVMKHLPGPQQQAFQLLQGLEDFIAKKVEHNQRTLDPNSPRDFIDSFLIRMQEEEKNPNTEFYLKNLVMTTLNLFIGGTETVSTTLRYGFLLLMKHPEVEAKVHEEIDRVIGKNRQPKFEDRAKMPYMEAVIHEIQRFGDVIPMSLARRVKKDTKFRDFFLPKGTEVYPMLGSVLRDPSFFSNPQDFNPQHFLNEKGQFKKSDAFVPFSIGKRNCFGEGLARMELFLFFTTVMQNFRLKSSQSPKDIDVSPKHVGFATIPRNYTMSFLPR
# [3] = DRUGMATRIX: GABAA, Flunitrazepam, Central radioligand binding (ligand: [3H] Flunitrazepam); assay type: cell membranes, Rattus norvegicus, Wistar, Brain, Membrane; conditions: Not Active = under 50% inhibition at 10 µM
# [4] = molecular target: T2, Polyunsaturated fatty acid lipoxygenase ALOX15 (Oryctolagus cuniculus, UniProt P12530); experiment: biochemical; assay type: tissue-based, Reticulocytes; conditions: reticulocytes;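 further: inhibition of 15-lipoxygenase enzyme activity measured with linoleic acid as the substrate; in other assays of this panel Not Active means under 50% inhibition at 10 µM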
# T2 sequence (P12530 whole entry): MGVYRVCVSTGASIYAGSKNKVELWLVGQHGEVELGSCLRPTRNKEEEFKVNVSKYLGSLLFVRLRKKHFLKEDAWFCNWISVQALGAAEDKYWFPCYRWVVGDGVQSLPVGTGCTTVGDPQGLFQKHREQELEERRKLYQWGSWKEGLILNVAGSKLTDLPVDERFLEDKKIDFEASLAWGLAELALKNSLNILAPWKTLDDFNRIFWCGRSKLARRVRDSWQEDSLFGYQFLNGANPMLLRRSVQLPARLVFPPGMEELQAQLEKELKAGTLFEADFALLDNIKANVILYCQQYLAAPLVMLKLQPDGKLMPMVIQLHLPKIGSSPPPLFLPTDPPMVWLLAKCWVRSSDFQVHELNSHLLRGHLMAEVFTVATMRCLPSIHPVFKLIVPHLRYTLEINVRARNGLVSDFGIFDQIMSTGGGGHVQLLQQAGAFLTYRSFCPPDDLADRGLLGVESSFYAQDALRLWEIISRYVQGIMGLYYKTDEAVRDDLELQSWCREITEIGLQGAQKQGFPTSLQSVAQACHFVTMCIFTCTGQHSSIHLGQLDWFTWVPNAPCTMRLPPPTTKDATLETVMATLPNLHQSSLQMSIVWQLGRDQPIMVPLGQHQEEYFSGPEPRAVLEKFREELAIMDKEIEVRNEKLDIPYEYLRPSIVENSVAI
# [5] = DRUGMATRIX: Sigma2 radioligand binding (ligand: [3H] Ifenprodil); assay type: cell membranes, Rattus norvegicus, Wistar, Brain, Membrane; conditions: Not Active = under 50% inhibition at 10 µM
# [6] = molecular target: Protein phosphatase 3 catalytic subunit alpha (Homo sapiens, UniProt Q08209); parameters: species or system Escherichia coli
# Leukotriene C4 synthase = molecular target: T3, Leukotriene C4 synthase (Cavia porcellus, UniProt A6XA80); experiment: biochemical; assay type: tissue-based, Lung
# T3 sequence (A6XA80 whole entry): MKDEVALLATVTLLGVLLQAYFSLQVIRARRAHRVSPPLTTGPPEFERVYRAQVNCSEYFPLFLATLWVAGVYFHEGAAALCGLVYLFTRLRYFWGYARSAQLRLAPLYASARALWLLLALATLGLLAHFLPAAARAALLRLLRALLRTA
# [7] = molecular target: Sigma non-opioid intracellular receptor 1 (Homo sapiens, UniProt Q99720); experiment: DRUGMATRIX: Sigma1 radioligand binding (ligand: [3H] Haloperidol); assay type: cell membranes, Jurkat, Membrane; conditions: jurkat; Not Active = under 50% inhibition at 10 µM
# [8] = molecular target: cGMP-specific 3',5'-cyclic phosphodiesterase (Homo sapiens, UniProt O76074); experiment: DRUGMATRIX: Phosphodiesterase PDE5 enzyme inhibition (substrate: [3H]cGMP + cGMP); assay type: tissue-based, Platelet; conditions: platelet; Not Active = under 50% inhibition at 10 µM
# [9] = molecular target: Platelet-activating factor receptor (Homo sapiens, UniProt P25105); experiment: biochemical; assay type: tissue-based; conditions: platelet; further: in other assays of this panel Not Active means under 50% inhibition at 10 µM
# Estrogen receptor = molecular target: T4, Estrogen receptor (Homo sapiens, UniProt P03372); conditions: sf9; further: in other assays of this panel Not Active means under 50% inhibition at 10 µM
# T4 sequence (P03372 whole entry): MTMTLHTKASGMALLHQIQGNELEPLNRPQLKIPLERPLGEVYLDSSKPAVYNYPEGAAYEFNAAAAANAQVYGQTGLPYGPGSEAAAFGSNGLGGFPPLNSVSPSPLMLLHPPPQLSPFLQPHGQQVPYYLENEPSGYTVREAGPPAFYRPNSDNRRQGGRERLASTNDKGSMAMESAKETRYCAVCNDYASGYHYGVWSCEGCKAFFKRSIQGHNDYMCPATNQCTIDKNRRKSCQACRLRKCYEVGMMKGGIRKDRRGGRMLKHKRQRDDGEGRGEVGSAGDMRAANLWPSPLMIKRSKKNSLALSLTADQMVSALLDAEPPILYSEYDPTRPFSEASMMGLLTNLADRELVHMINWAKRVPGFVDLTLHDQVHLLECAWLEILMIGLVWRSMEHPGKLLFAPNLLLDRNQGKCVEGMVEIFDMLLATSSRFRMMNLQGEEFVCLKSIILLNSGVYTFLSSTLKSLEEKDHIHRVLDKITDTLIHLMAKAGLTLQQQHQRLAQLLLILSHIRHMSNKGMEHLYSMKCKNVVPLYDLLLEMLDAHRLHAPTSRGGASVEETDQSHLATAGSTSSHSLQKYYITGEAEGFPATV
# [10] = molecular target: 5-hydroxytryptamine receptor 1B (Rattus norvegicus, UniProt P28564); assay type: cell membranes, Wistar, Cerebral cortex, Membrane; further: in other assays of this panel Not Active means under 50% inhibition at 10 µM
# [11] = DRUGMATRIX: Phorbol Ester radioligand binding (ligand: [3H] PDBu); assay type: cell membranes, Mus musculus, ICR, Brain, Membrane; conditions: Not Active = under 50% inhibition at 10 µM
# Chain of Platelet-activating factor receptor (P25105 whole entry): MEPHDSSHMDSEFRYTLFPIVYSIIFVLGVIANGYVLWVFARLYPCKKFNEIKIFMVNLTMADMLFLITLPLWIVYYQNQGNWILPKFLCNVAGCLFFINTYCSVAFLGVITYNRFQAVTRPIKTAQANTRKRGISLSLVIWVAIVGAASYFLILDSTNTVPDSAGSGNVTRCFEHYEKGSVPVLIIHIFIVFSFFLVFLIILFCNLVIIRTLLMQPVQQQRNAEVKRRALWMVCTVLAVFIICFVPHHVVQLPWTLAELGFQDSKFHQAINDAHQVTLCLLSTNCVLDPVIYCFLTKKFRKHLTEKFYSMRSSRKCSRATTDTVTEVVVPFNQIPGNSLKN
# Chain of Sigma non-opioid intracellular receptor 1 (Q99720 whole entry): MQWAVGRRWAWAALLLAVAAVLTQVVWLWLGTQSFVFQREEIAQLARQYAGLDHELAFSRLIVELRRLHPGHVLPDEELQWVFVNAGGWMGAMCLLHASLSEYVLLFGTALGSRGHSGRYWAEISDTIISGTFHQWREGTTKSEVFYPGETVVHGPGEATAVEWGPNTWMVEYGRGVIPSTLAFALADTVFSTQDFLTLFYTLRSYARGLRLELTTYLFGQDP
# Chain of 5-hydroxytryptamine receptor 1B (P28564 whole entry): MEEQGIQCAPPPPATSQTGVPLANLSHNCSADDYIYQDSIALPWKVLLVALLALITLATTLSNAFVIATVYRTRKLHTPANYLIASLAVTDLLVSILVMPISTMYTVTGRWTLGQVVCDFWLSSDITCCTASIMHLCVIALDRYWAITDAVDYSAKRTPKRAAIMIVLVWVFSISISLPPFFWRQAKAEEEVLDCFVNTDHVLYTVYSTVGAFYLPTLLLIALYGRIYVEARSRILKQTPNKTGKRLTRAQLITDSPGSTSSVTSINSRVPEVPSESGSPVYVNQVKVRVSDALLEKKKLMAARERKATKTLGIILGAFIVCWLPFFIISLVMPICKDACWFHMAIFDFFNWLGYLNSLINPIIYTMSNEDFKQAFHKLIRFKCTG
# Chain of Substance-P receptor (P25103 whole entry): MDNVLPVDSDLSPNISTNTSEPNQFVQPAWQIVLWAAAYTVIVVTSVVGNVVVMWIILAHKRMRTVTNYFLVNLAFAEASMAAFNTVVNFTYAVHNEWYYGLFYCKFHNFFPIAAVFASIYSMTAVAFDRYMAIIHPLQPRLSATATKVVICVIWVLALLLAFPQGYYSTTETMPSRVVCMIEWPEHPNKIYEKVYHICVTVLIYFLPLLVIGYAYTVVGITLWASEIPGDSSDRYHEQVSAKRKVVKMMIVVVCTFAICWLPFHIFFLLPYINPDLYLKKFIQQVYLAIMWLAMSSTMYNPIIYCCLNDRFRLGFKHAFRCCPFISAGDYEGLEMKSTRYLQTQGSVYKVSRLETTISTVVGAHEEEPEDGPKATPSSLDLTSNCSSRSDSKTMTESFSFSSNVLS
# Chain of Matrix metalloproteinase-9 (P14780 whole entry): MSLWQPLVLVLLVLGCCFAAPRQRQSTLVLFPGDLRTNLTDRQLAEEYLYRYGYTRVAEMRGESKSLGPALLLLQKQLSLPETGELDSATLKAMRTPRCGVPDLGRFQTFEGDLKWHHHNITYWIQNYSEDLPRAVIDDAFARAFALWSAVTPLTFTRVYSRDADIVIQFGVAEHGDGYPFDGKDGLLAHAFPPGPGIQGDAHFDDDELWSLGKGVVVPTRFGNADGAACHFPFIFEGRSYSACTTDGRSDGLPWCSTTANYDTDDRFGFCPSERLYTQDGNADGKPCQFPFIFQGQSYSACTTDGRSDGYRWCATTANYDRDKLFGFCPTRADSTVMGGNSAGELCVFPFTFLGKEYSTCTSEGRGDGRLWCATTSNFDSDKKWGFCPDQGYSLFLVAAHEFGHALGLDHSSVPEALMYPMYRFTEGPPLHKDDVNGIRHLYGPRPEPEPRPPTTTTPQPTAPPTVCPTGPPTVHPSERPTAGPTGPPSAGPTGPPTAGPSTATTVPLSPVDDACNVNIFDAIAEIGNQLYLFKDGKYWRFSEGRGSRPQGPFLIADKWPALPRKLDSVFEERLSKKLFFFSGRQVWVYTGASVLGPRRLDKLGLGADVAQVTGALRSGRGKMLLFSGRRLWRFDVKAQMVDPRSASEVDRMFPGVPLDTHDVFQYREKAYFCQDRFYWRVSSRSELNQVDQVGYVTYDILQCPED
SMILES,IC50 [1],Ki [1],IC50 [2],IC50 (Substance-P receptor),IC50 (Cytochrome P450 2A6),Ki (Cytochrome P450 2A6),IC50 [3],Ki [3],IC50 [4],IC50 [5],Ki [5],IC50 [6],IC50 (Leukotriene C4 synthase),IC50 [7],IC50 [8],IC50 [9],IC50 (Estrogen receptor),IC50 [10],IC50 [11],Ki [11],also measured
Brc1ccccc1 [BROMOBENZENE],Not Active,Not Active,Not Active,Not Active,Not Active,Not Active,Not Active,Not Active,Not Active,Not Active,Not Active,Not Active,Not Active,Not Active,Not Active,Not Active,Not Active,Not Active,Not Active,Not Active,
COc1ccc2cc(CC(=O)O)ccc2c1,Not Active,Not Active,Not Active,Not Active,Not Active,Not Active,Not Active,Not Active,Not Active,Not Active,Not Active,Not Active,,Not Active,Not Active,Not Active,Not Active,Not Active,Not Active,Not Active,IC50 (Leukotriene C4 synthase; read-out: IC50): 49.7 µM
OCc1ccccc1 [BENZYL ALCOHOL],Not Active,Not Active,Not Active,Not Active,Not Active,Not Active,Not Active,Not Active,Not Active,Not Active,Not Active,Not Active,Not Active,Not Active,Not Active,Not Active,Not Active,Not Active,Not Active,Not Active,
CCc1cccc2c3c([nH]c12)C(CC)(CC(=O)O)OCC3 (stereo not given) [ETODOLAC],Not Active,Not Active,Not Active,Not Active,Not Active,Not Active,Not Active,Not Active,Not Active,Not Active,Not Active,Not Active,Not Active,Not Active,Not Active,Not Active,Not Active,Not Active,Not Active,Not Active,
